The source of these data is article PMC7576608, “Mechanisms of telomerase inhibition by oxidized and therapeutic dNTPs” (Nature Communications, 2020).

In this experiment the target is telomerase (Homo sapiens, UniProt O14746). The experiment is described as follows: Telomerase extension of 32P-end labeled primers with a single dNTP (percent primer extension). The format is biochemical. The arrangement: made in house; anti-FLAG immunopurification, eluted with 3xFLAG peptide. The conditions noted are these: for Percent Primer Extension: 50 μM single dNTP. The procedure: A chain terminating mechanism of inhibition requires that the enzyme adds the modified dNTP to a growing chain, which then blocks further synthesis. […] To test whether telomerase can incorporate other modified dNTPs, and whether the incorporation is chain terminating and/or mutagenic, we conducted direct extension assays in which we radiolabeled the primer and added increasing concentrations (5, 50, and 500 μM) of a single dNTP (Supplementary Figs. 3, 5, 6, and 7). Since modified dNTPs may prefer mispairing, we tested various primers in which the first template base was either rA3, rC1, or rU5 (primer 1, primer 2, and primer 3, respectively), and compared the percent primer extension for each dNTP at the middle 50 μM concentration (Fig. 3). Primers 1 and 2 initiate synthesis at consecutive rA3rA4 or rC1rC2 template bases, respectively, so we could examine both incorporation and extension to the next base. However, the telomerase template lacks tandem rU residues.
telomerase, sequence (O14746 whole entry): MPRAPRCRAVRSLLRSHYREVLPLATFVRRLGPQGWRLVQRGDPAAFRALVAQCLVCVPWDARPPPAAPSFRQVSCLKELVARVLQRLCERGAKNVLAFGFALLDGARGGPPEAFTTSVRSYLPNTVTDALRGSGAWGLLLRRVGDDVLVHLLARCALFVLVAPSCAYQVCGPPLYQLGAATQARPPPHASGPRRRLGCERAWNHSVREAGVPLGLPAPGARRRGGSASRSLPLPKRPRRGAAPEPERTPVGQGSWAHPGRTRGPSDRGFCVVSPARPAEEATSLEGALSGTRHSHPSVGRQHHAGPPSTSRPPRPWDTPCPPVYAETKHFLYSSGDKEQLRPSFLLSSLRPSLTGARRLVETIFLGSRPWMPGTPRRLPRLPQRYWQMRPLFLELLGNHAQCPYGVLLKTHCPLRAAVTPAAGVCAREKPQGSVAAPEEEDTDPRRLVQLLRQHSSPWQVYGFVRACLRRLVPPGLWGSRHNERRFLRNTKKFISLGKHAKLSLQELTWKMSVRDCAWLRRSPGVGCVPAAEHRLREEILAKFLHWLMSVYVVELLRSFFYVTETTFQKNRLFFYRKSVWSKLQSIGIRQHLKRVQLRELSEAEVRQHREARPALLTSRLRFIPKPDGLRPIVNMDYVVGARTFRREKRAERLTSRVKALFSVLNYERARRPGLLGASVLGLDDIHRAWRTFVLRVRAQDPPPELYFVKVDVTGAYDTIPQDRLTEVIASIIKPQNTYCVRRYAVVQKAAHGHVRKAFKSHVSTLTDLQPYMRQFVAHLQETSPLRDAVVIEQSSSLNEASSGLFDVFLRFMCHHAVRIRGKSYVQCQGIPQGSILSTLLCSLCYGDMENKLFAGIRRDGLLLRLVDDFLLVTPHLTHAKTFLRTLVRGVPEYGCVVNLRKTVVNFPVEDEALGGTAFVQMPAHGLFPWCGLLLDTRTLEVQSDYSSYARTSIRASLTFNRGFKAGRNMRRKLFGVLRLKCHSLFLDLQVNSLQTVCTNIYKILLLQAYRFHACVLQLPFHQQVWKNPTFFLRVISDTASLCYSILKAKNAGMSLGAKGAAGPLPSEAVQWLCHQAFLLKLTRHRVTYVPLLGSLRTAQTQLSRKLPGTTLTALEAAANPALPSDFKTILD
Fig. 3 Telomerase insertion of modified dNTPs. Telomerase reactions were conducted with 5 nM ^32P-end labeled primer a Primer 1 (TTAGGG)3, b Primer 2 (GGTTAG)3, or c Primer 3 (AGGGTT)3. Reactions contained cellular-concentration dNTPs (lane 1) or 50 μM of indicated natural dNTP (blue, lanes 2–5), oxidized dNTP (red, lanes 6–8), or therapeutic dNTP (green, lanes 9–11). Products were separated on denaturing gels. […] Letters on the right indicate the template base; P indicates unextended 18-mer primer. Graphs represent the percent of total primers extended. Images are representative of, and data are shown as mean ± s.d. from, three independent experiments. Source data are provided as a Source Data file.
An equal volume of loading buffer (94% formamide, 0.1× TBE, 0.1% bromophenol blue, 0.1% xylene cyanol) was added to the reaction eluent. The samples were heat denatured for 10 min at 100 °C and loaded onto a 14% denaturing acrylamide gel (7 M urea, 1× TBE) and electrophoresed for 90 min at constant 38 W. Samples were imaged using a Typhoon phosphorimager (GE Healthcare). Percent primer extension was calculated with ImageQuant TL 8.2 by measuring the intensity of each product band and dividing by the total radioactivity in the lane or total products, as indicated in the figure legends.
Telomerase reactions were conducted with 5 nM 32P-end labeled primer (a) Primer 1 (TTAGGG)3, (b) Primer 2 (GGTTAG)3, or (c and d) Primer 3 […]
(d) reactions contained 3 µg/µl RNase A. Products were separated on denaturing gels. Letters on the right indicate the template base; P indicates unextended 18-mer primer. Graphs represent the percent of total primers extended for the reactions in panels a – c from one experiment. Panel d is a representative image from three independent experiments. Source data are provided as a Source Data file. […]
Supplementary Fig 4. Time course reactions with telomerase or pol β. (a, b) Telomerase reactions were conducted with 5 nM 32P-end labeled primer (a) Primer 4 (GTTAGG)3 or (b) Primer 2 (GGTTAG)3.
Products were separated on denaturing gels. Letters on the right indicate the template base; P indicates […]
unextended 18-mer primer. […]

The mark [1] stands for this setting: Primer 1 (TTAGGG)3, first template base rA3, Mean of three experiments.
[2] abbreviates: Primer 2 (GGTTAG)3, first template base rC1, Mean of three experiments.
[3] abbreviates: end-labeled primers, single dNTP.
Setting [4] is: Primer 2 (GGTTAG)3, first template base rC1, single experiments n1-n3.
[5] abbreviates: Primer 3 (AGGGTT)3, first template base rU5, Mean of three experiments.
[6] abbreviates: Primer 3 (AGGGTT)3, first template base rU5, single experiments n1-n3.

For the molecule `Nc1nc(O)nc2c1ncn2C1CC(O)C(COP(=O)(O)OP(=O)(O)OP(=O)(O)O)O1` (stereo not drawn) [2-OH-dATP], the “Percent Primer Extension” value under setting [1] was 2.82% and the “Percent Primer Extension” value under setting [2] amounted to 1.32%. Further, the “% Primer Extension” value (Primer 1, 5µM dNTP) is 0.00%; the “% Primer Extension” value (Primer 1, 50µM dNTP) stood at 1.98%; the “% Primer Extension” value (Primer 1, 500µM dNTP) is given as 6.01%; the “% Primer Extension” value (Primer 2, 5µM dNTP) is recorded as 0.00%; the “% Primer Extension” value (Primer 2, 50µM dNTP) is on record as 1.93%; the “% Primer Extension” value (Primer 2, 500µM dNTP) turned out to be 3.14%. For the same molecule, the “% Primer Extension” value by setting is: (Primer 3, 5µM dNTP) 8.27%; (Primer 3, 50µM dNTP) 15.94%; (Primer 3, 500µM dNTP) 46.35%. Besides, the “Fold less product than with dATP” value (Primer 3, insertion opposite rU5, 50 μM) turned out to be 2 fold. In addition, the “Mutagenic insertion by telomerase (in words)” value (misinsertion opposite rA3 and rC1) was “not mutagenic”.

For the molecule `Nc1nc2c(ncn2C2CC(O)C(COP(=O)(O)OP(=O)(O)OP(=O)(O)O)O2)c(=S)[nH]1` (stereo not drawn) [6-thio-dGTP], the “% Primer Extension” value is, setting by setting: (Primer 1, 5µM dNTP) 0%; (Primer 1, 50µM dNTP) 3.68%; (Primer 1, 500µM dNTP) 4.47%; (Primer 2, 5µM dNTP) 6.19%; (Primer 2, 50µM dNTP) 6.25%; (Primer 2, 500µM dNTP) 8.35%. Moreover, the “% Primer Extension” value (Primer 3, 5µM dNTP) was 6.75%; the “% Primer Extension” value (Primer 3, 50µM dNTP) is reported as 6.04%; the “% Primer Extension” value (Primer 3, 500µM dNTP) is 7.79%. Besides, under setting [3], the “Chain termination after telomerase insertion (in words)” value (“Chain termination” below) is on record as “not a telomerase chain terminator”.

On to `Nc1ncnc2c1[nH]c(=O)n2C1CC(O)C(COP(=O)(O)OP(=O)(O)OP(=O)(O)O)O1` (stereo not drawn) [8-oxo-dATP], for which the “Percent Primer Extension” value under setting [1] is given as 0.53%; the “Percent Primer Extension” value under setting [2] is recorded as 0.00%; the “Percent Primer Extension” value under setting [4] is listed as 0.00%; the “Percent Primer Extension” value under setting [5] is recorded as 0.00%; the “Percent Primer Extension” value under setting [6] is given as 0.00%. The “% Primer Extension” value (Primer 1, 5µM dNTP) was 0.00%; the “% Primer Extension” value (Primer 1, 50µM dNTP) came out at 0.00%; the “% Primer Extension” value (Primer 1, 500µM dNTP) turned out to be 1.79%; the “% Primer Extension” value (Primer 2, 5µM dNTP) amounted to 0.00%; the “% Primer Extension” value (Primer 2, 50µM dNTP) is given as 0.00%; the “% Primer Extension” value (Primer 2, 500µM dNTP) came out at 0.00%. For the same molecule, the “% Primer Extension” value runs as follows: (Primer 3, 5µM dNTP) 0.00%; (Primer 3, 50µM dNTP) 0.00%; (Primer 3, 500µM dNTP) 0.00%. Besides, the “Quality as telomerase substrate (in words)” value under setting [3] is reported as “very poor substrate for telomerase”.

As for `Nc1nc2c([nH]c(=O)n2C2CC(O)C(COP(=O)(O)OP(=O)(O)OP(=O)(O)O)O2)c(=O)[nH]1` (stereo not drawn) [8-oxo-dGTP], the “Percent Primer Extension” value reads like this: under setting [1], 10.80%; under setting [2], 0.96%; under setting [5], 0.00%; under setting [6], 0.00%. Besides, the “% Primer Extension” value (Primer 1, 5µM dNTP) is listed as 5.20%; the “% Primer Extension” value (Primer 1, 50µM dNTP) was 7.44%; the “% Primer Extension” value (Primer 1, 500µM dNTP) stood at 8.42%; the “% Primer Extension” value (Primer 2, 5µM dNTP) was found to be 0.88%; the “% Primer Extension” value (Primer 2, 50µM dNTP) was 1.37%; the “% Primer Extension” value (Primer 2, 500µM dNTP) is 6.18%. Besides, the “% Primer Extension” value is listed as 0.00% (Primer 3, 5µM dNTP); 0.00% (Primer 3, 50µM dNTP); 0.00% (Primer 3, 500µM dNTP). For the same molecule, the “Chain termination” value under setting [3] is “chain-terminating ability”.

With `Cc1cn([C@H]2C[C@H](N=[N+]=[N-])[C@@H](CO[P@](=O)(O)O[P@](=O)(O)OP(=O)(O)O)O2)c(=O)[nH]c1=O` [AZT-TP], the “Percent Primer Extension” value under setting [2] worked out at 0.00%, the “Percent Primer Extension” value under setting [4] was determined as 0.00%, the “Percent Primer Extension” value under setting [5] turned out to be 0.00% and the “Percent Primer Extension” value under setting [6] turned out to be 0.00%. Under setting [3], the “Chain termination” value is recorded as “genuine telomerase chain terminators”.

Consider `Nc1ncnc2c1ncn2C1CC(O)C(COP(=O)(O)OP(=O)(O)OP(=O)(O)O)O1` (stereo not drawn) [dATP], for which the “Percent Primer Extension” value was 3.48% under setting [1], 0.00% under setting [2] and 0.00% under setting [4]. Further, the “% Primer Extension” value turned out to be 0.00% (Primer 1, 5µM dNTP); 1.84% (Primer 1, 50µM dNTP); 3.63% (Primer 1, 500µM dNTP); 0.00% (Primer 2, 5µM dNTP); 0.00% (Primer 2, 50µM dNTP); 2.50% (Primer 2, 500µM dNTP). Moreover, the “% Primer Extension” value was determined as 11.52% (Primer 3, 5µM dNTP); 14.88% (Primer 3, 50µM dNTP); 23.85% (Primer 3, 500µM dNTP).

As for `Nc1nc2c(ncn2C2CC(O)C(COP(=O)(O)OP(=O)(O)OP(=O)(O)O)O2)c(=O)[nH]1` (stereo not drawn) [dGTP], the “% Primer Extension” value stood at 5.54% (Primer 1, 5 µM dGTP, one experiment); 14.06% (Primer 1, 50 µM dGTP, one experiment); 18.26% (Primer 1, 500 µM dGTP, one experiment); 20.91% (Primer 2, 5 µM dGTP, one experiment); 31.85% (Primer 2, 50 µM dGTP, one experiment); 40.91% (Primer 2, 500 µM dGTP, one experiment). In addition, the “% Primer Extension” value reads like this: (Primer 3, 5 µM dGTP, one experiment) 2.22%; (Primer 3, 50 µM dGTP, one experiment) 6.90%; (Primer 3, 500 µM dGTP, one experiment) 12.81%; (time course, 50 μM dGTP, primer 2 (GGTTAG)3, 0 minutes) 0.00%; (time course, 50 μM dGTP, primer 2 (GGTTAG)3, 1 minute) 1.70%; (time course, 50 μM dGTP, primer 2 (GGTTAG)3, 3 minutes) 2.22%. Further, the “% Primer Extension” value is, setting by setting: (time course, 50 μM dGTP, primer 2 (GGTTAG)3, 5 minutes) 2.61%; (time course, 50 μM dGTP, primer 2 (GGTTAG)3, 9 minutes) 2.82%; (time course, 50 μM dGTP, primer 2 (GGTTAG)3, 15 minutes) 7.50%; (time course, 50 μM dGTP, primer 2 (GGTTAG)3, 30 minutes) 7.57%; (time course, 50 μM dGTP, primer 2 (GGTTAG)3, 45 minutes) 7.80%; (time course, 50 μM dGTP, primer 4 (GTTAGG)3, 0 minutes) 0.00%. Also, the “% Primer Extension” value is, setting by setting: (time course, 50 μM dGTP, primer 4 (GTTAGG)3, 1 minute) 1.79%; (time course, 50 μM dGTP, primer 4 (GTTAGG)3, 3 minutes) 0.86%; (time course, 50 μM dGTP, primer 4 (GTTAGG)3, 5 minutes) 1.17%; (time course, 50 μM dGTP, primer 4 (GTTAGG)3, 9 minutes) 1.23%; (time course, 50 μM dGTP, primer 4 (GTTAGG)3, 15 minutes) 1.72%; (time course, 50 μM dGTP, primer 4 (GTTAGG)3, 30 minutes) 4.10%. Under “time course, 50 μM dGTP, primer 4 (GTTAGG)3, 45 minutes”, the “% Primer Extension” value was determined as 8.71%.

Turning to `Cc1cn(C2CC(O)C(COP(=O)(O)OP(=O)(O)OP(=O)(O)O)O2)c(=O)[nH]c1=O` (stereo not drawn) [dTTP], the “% Primer Extension” value is, setting by setting: (Primer 1, 5µM dNTP) 30.00%; (Primer 1, 50µM dNTP) 36.00%; (Primer 1, 500µM dNTP) 45.00%; (Primer 2, 5µM dNTP) 0.00%; (Primer 2, 50µM dNTP) 0.00%; (Primer 2, 500µM dNTP) 0.00%. Also, the “% Primer Extension” value (Primer 3, 5µM dNTP) worked out at 3.79%; the “% Primer Extension” value (Primer 3, 50µM dNTP) was determined as 9.26%; the “% Primer Extension” value (Primer 3, 500µM dNTP) amounted to 17.69%. The “Percent Primer Extension” value under setting [2] was 0.00% and the “Percent Primer Extension” value under setting [4] came out at 0.00%.
